Results taken from ChEMBL document CHEMBL5360658, “Discovery of MK-8768, a Potent and Selective mGluR2 Negative Allosteric Modulator” (ACS Med Chem Lett, 2023).
Values after ≈ are worked out from the molar mass of the structure shown.

Tests used:
[1] = target: T1, Cytochrome P450 1A2 (Homo sapiens, UniProt P05177); experiment: […] of CYP1A2 (unknown origin); format: ADME
T1 sequence (P05177 whole entry): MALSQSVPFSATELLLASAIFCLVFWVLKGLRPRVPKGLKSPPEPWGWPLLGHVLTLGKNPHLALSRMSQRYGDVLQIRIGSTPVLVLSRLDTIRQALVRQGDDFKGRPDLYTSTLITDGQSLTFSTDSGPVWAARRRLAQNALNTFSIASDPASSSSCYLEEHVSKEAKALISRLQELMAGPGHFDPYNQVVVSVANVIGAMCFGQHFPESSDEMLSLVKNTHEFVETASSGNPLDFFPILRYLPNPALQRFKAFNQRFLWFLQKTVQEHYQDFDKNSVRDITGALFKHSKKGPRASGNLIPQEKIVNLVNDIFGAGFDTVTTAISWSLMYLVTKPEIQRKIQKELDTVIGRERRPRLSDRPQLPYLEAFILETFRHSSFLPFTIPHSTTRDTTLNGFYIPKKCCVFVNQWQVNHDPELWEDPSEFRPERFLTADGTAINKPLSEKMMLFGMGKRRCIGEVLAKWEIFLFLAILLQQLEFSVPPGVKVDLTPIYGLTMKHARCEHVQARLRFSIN

[2] = target: Metabotropic glutamate receptor 6 (Homo sapiens, UniProt O15303); experiment: Negative allosteric modulation at mGluR6 receptor (unknown origin) assessed as effect on intracellular calcium flux measured after 5 min by Fluo-4AM dye based FLIPR analysis; format: functional, cell-based
[3] = Oral bioavailability in dog at 0.5 mg/kg; format: ADME, organism-based, Canis lupus familiaris; conditions: in vivo
[4] = target: Voltage-gated inwardly rectifying potassium channel KCNH2 (Homo sapiens, UniProt Q12809); experiment: Displacement of [35S]-MK-499 from hERG expressed in HEK293 cells […]; format: toxicity, cell-based
[5] = Fraction unbound in human plasma; format: ADME, cell-free
[6] = target: Cytochrome P450 2C9 (Homo sapiens, UniProt P11712); experiment: […] of CYP2C9 (unknown origin); format: ADME
[7] = Clearance in dog at 0.25 mg/kg, iv; format: ADME, organism-based, Canis lupus familiaris; conditions: in vivo
[8] = Clearance in rat at 1 mg/kg, iv; format: ADME, organism-based; conditions: in vivo
[9] = Effective half life in dog at 0.25 mg/kg, iv; format: ADME, organism-based, Canis lupus familiaris; conditions: in vivo, read-out: t1/2eff (converted)
[10] = target: T2, Cytochrome P450 2C8 (Homo sapiens, UniProt P10632); experiment: […] of CYP2C8 (unknown origin); format: ADME
T2 sequence (P10632 whole entry): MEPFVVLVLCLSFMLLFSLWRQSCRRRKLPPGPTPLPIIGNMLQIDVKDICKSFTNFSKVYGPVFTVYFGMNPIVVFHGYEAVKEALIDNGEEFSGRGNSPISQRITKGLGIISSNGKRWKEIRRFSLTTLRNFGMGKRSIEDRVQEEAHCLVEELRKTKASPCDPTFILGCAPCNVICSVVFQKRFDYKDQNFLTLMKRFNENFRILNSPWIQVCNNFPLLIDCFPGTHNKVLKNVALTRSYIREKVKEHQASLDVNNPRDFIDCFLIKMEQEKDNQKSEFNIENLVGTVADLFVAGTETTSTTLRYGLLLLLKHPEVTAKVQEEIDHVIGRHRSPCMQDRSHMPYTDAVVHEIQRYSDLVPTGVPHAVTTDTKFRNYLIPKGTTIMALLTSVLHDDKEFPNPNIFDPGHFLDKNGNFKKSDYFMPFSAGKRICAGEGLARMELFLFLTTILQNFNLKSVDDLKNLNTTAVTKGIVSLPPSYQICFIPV

[11] = Volume of distribution in monkey at 0.5 mg/kg, iv; format: ADME, organism-based, Macaca mulatta; conditions: rhesus monkey, in vivo
[12] = Effective half life in monkey at 0.5 mg/kg, iv; format: ADME, organism-based, Macaca mulatta; conditions: rhesus monkey, in vivo, read-out: t1/2eff (converted)
[13] = Effective half life in rat at 1 mg/kg, iv; format: ADME, organism-based; conditions: in vivo, read-out: t1/2eff (converted)
[14] = Clearance in monkey at 0.5 mg/kg, iv; format: ADME, organism-based, Macaca mulatta; conditions: rhesus monkey, in vivo
[15] = Solubility of the compound in FeSSIF; format: physicochemical
[16] = Mutagenicity in Salmonella typhimurium in presence of S9 fraction by Ames test; format: toxicity, subcellular; conditions: salmonella enterica subsp. enterica serovar typhimurium
[17] = Volume of distribution in dog at 0.25 mg/kg, iv; format: ADME, organism-based, Canis lupus familiaris; conditions: in vivo
[18] = Volume of distribution in rat at 1 mg/kg, iv; format: ADME, organism-based; conditions: in vivo
[19] = target: Metabotropic glutamate receptor 4 (Homo sapiens, UniProt Q14833); experiment: Negative allosteric modulation at mGluR4 receptor (unknown origin) assessed as effect on intracellular calcium flux measured after 5 min by Fluo-4AM dye based FLIPR analysis; format: functional, cell-based
[20] = Solubility of the compound in SGF buffer; format: physicochemical
[21] = target: Cytochrome P450 2C19 (Homo sapiens, UniProt P33261); experiment: […] of CYP2C19 (unknown origin); format: ADME
[22] = Fraction unbound in rat plasma; format: ADME, cell-free
[23] = Oral bioavailability in rat at 2 mg/kg; format: ADME, organism-based; conditions: in vivo
[24] = target: Cytochrome P450 2D6 (Homo sapiens, UniProt P10635); experiment: […] of CYP2D6 (unknown origin); format: ADME
[25] = Apparent permeability in […] LLC-MDR1 cell; format: ADME, cell-based; conditions: LLC-PK1
[26] = Solubility of the compound in FaSSIF; format: physicochemical
[27] = Unbound plasma concentration in rhesus monkey at 0.01 to 1 mg/kg, IM; format: ADME, organism-based, Macaca mulatta; conditions: in vivo, dose 0.01-1 mg/kg
[28] = target: Metabotropic glutamate receptor 8 (Homo sapiens, UniProt O00222); experiment: Negative allosteric modulation at mGluR8 receptor (unknown origin) assessed as effect on intracellular calcium flux measured after 5 min by Fluo-4AM dye based FLIPR analysis; format: functional, cell-based
[29] = Fraction unbound in dog plasma; format: ADME, cell-free, Canis lupus familiaris
[30] = Fraction unbound in monkey plasma; format: ADME, cell-free, Macaca mulatta; conditions: rhesus monkey
[31] = target: T3, Cytochrome P450 2B6 (Homo sapiens, UniProt P20813); experiment: […] of CYP2B6 (unknown origin); format: ADME
T3 sequence (P20813 whole entry): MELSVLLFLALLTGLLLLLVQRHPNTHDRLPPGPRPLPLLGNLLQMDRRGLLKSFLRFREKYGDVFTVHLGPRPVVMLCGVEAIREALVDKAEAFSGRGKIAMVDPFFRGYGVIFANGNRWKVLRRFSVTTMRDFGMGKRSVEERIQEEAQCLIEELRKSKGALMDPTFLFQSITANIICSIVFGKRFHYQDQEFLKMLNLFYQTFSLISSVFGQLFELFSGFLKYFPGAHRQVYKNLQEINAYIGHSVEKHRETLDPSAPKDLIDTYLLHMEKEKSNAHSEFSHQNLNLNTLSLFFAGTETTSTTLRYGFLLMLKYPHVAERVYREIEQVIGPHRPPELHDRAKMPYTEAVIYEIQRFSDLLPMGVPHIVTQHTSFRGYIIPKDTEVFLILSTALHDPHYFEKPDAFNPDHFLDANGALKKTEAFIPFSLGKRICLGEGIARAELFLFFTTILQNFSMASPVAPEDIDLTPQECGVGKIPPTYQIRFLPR

[32] = target: Metabotropic glutamate receptor 1 (Homo sapiens, UniProt Q13255); experiment: Negative allosteric modulation at mGluR1 receptor (unknown origin) assessed as effect on intracellular calcium flux measured after 5 min by Fluo-4AM dye based FLIPR analysis; format: functional, cell-based
[33] = target: Cytochrome P450 3A4 (Homo sapiens, UniProt P08684); experiment: […] of CYP3A4 (unknown origin); format: ADME

Sequence of Cytochrome P450 2D6 (P10635 whole entry): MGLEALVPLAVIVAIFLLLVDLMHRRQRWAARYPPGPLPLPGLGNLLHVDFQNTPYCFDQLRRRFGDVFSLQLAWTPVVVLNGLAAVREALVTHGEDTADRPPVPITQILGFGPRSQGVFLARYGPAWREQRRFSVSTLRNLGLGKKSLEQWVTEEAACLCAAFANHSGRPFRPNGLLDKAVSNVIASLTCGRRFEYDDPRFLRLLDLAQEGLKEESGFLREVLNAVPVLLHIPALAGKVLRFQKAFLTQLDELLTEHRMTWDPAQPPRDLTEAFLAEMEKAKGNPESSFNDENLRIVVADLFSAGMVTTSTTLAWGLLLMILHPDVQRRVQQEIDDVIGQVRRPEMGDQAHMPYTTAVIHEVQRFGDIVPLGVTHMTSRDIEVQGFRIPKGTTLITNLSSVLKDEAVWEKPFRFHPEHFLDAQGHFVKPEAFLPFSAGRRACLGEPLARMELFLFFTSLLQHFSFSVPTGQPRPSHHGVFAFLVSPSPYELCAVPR
Sequence of Cytochrome P450 2C19 (P33261 whole entry): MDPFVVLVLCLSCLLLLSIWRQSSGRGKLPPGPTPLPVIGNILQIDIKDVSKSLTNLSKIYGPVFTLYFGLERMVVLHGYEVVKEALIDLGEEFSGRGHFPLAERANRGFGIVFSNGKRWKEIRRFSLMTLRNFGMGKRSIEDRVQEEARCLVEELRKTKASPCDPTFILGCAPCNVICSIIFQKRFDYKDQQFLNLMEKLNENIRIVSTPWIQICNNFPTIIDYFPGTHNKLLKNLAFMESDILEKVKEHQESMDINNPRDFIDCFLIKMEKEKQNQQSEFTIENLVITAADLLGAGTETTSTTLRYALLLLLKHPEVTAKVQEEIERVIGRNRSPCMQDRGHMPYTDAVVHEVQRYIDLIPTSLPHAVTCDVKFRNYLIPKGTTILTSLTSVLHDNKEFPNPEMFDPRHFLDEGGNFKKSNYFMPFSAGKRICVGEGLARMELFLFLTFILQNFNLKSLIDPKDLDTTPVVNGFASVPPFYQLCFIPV
Sequence of Metabotropic glutamate receptor 4 (Q14833 whole entry): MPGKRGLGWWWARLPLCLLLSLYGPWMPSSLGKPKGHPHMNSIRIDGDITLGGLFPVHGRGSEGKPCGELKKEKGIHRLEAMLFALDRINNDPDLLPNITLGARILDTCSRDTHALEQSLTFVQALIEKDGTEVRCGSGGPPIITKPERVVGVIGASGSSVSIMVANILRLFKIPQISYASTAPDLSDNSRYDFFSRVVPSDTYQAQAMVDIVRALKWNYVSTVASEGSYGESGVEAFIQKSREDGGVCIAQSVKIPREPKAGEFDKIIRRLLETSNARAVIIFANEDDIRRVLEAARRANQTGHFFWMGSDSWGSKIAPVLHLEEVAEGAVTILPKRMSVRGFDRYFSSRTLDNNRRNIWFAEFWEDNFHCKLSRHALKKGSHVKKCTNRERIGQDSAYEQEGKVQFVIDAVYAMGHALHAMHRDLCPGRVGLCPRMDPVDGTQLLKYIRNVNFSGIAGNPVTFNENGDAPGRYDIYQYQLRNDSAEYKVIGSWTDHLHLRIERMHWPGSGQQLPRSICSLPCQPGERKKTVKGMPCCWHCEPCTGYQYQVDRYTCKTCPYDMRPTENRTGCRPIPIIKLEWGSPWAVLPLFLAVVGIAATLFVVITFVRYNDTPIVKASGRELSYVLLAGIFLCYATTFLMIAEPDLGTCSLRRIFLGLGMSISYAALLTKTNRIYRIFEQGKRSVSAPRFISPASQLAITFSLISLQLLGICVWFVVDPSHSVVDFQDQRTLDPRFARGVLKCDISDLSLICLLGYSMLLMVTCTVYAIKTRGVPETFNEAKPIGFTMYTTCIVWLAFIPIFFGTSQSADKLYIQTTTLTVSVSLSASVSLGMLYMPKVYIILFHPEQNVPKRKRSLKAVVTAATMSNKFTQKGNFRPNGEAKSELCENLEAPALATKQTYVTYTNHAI
Sequence of Metabotropic glutamate receptor 8 (O00222 whole entry): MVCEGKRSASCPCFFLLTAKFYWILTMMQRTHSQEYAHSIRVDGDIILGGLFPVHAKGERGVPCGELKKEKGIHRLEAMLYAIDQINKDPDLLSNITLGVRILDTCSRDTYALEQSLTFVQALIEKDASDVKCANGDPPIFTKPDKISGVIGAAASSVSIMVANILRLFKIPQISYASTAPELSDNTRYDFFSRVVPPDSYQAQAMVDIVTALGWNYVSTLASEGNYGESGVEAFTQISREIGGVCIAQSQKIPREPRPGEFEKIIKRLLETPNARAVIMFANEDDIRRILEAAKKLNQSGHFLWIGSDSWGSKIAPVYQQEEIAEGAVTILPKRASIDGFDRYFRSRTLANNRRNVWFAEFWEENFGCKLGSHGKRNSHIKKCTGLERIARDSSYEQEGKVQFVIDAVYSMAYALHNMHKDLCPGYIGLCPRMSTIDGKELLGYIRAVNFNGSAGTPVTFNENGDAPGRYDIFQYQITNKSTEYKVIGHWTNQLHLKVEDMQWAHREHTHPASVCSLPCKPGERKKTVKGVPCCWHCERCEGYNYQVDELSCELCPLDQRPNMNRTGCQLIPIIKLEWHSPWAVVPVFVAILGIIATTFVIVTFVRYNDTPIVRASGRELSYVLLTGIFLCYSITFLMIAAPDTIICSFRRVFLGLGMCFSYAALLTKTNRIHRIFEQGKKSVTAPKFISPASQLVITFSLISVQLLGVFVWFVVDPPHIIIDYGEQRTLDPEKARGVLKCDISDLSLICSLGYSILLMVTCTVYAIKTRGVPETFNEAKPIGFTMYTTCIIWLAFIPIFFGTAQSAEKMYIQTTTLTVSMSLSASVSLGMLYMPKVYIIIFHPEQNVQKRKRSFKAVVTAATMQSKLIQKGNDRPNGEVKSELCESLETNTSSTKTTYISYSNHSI
Sequence of Metabotropic glutamate receptor 6 (O15303 whole entry): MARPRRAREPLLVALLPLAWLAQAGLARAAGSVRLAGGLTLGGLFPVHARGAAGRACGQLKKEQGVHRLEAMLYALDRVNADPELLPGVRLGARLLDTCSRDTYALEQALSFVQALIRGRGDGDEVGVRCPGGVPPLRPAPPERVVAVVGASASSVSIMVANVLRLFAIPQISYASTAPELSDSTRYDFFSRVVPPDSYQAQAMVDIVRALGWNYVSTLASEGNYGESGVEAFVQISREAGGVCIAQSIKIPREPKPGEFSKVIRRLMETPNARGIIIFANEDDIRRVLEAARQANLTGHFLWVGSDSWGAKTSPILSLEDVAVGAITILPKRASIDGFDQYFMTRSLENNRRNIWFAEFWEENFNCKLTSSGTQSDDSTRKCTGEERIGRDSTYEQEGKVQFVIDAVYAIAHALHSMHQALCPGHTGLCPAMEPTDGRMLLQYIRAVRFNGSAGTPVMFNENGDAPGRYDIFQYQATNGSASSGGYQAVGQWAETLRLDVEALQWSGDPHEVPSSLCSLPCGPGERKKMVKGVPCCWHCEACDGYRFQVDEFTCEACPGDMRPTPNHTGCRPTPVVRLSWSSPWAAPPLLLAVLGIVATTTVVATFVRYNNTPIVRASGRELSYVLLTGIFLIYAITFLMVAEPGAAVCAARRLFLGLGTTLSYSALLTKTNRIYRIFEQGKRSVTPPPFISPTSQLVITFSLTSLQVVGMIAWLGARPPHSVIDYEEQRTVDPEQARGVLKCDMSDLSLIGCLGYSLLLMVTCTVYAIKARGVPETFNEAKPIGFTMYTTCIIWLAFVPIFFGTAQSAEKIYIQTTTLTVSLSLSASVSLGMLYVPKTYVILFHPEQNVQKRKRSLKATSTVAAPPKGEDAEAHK
Sequence of Metabotropic glutamate receptor 1 (Q13255 whole entry): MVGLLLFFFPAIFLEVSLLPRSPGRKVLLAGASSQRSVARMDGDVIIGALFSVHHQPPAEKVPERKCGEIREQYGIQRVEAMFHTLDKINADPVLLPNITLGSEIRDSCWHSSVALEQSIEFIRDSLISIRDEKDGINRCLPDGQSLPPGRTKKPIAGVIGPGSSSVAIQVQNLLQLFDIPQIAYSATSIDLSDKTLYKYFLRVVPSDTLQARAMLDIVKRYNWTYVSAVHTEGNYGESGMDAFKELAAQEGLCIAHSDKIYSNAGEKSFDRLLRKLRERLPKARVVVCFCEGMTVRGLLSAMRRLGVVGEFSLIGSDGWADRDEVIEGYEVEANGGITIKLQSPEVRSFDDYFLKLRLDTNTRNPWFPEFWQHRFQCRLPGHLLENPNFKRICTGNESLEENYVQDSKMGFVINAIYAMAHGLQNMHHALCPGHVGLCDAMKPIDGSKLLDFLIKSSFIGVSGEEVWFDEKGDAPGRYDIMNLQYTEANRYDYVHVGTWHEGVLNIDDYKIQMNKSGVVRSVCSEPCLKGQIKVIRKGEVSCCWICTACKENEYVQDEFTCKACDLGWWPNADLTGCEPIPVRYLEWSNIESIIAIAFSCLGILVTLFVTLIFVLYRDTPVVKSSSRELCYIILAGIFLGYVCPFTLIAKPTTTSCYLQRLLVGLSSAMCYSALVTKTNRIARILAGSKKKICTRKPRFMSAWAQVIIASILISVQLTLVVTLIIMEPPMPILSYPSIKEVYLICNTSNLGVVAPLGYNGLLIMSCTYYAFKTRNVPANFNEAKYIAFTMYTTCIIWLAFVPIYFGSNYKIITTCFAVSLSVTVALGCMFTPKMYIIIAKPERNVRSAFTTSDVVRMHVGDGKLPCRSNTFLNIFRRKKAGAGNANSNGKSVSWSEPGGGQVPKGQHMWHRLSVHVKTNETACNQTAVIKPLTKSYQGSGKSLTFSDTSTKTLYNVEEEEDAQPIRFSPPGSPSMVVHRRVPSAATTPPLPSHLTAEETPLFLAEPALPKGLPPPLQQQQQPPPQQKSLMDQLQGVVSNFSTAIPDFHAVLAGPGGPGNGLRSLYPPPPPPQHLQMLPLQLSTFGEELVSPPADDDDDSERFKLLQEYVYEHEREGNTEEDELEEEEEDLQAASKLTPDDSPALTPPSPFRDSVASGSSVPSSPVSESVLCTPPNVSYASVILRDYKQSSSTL

Compound: C[C@@H]1CN(Cc2ccc3c(-c4cnn(C)c4)cc(C(N)=O)nc3c2)C[C@H](C(F)(F)F)O1
- IC50 [1]: > 26 µM
- IC50 [2]: > 10 µM
- bioavailability [3]: 34%
- IC50 [4]: 22 µM
- fraction unbound [5]: 0.025
- IC50 [6]: > 26 µM
- clearance [7]: 24 mL/min/kg
- clearance [8]: 36 mL/min/kg
- half-life [9]: 198 min
- IC50 [10]: > 26 µM
- Vd [11]: 3.2 L/kg
- half-life [12]: 102 min
- half-life [13]: 108 min
- clearance [14]: 22 mL/min/kg
- solubility [15]: 2100 µg/mL (≈ 4.85 mM)
- Activity [16]: Non-Toxic
- Vd [17]: 7.3 L/kg
- Vd [18]: 5.7 L/kg
- IC50 [19]: > 10 µM
- solubility [20]: 4100 µg/mL (≈ 9.46 mM)
- IC50 [21]: > 26 µM
- fraction unbound [22]: 0.04
- bioavailability [23]: 32%
- IC50 [24]: > 26 µM
- Papp [25]: 32 ×10⁻⁶ cm/s
- solubility [26]: 440 µg/mL (≈ 1.02 mM)
- Cp(f) [27]: 3 nM
- IC50 [28]: > 10 µM
- fraction unbound [29]: 0.045
- fraction unbound [30]: 0.043
- IC50 [31]: > 26 µM
- IC50 [32]: > 10 µM
- IC50 [33]: > 26 µM
